# Experimental data as given in PMC6680932, “Structure–Antioxidant–Antiproliferative Activity Relationships of Natural C7 and C7–C8 Hydroxylated Flavones and Flavanones” (Antioxidants, 2019).
# Test: FRAP (ferric ion reducing antioxidant power) assay
# Details: 10 min, 593 nm; mean ± SD
# Protocol: The antioxidant capacity of flavonoids was measured in three separate tests: ABTS, DPPH, and ferric ion reducing antioxidant power (FRAP) assays (ABTS, DPPH, and FRAP reagents from Sigma-Aldrich). All tested compounds were dissolved in DMSO. All determinations were performed in triplicate. Standard curves were prepared for all assays using different concentrations of Trolox (6-hydroxy-2,5,7,8-tetramethylchroman-2-carboxylic acid) (Sigma-Aldrich). Trolox is a water-soluble analogue of vitamin E with high antioxidant activity, commonly used as a control and a reference in studies of antioxidant activity. The results were expressed as the equivalent of μmol Trolox per μmol of the test compound. The absorbance was measured using a UV-2401 PC spectrophotometer (Shimadzu, Kyoto, Japan). Concentrations of the tested samples were in the range from 50 µg/mL to 10 mg/mL.
# The FRAP method is based on measuring the ability of antioxidants to reduce ferric 2,4,6-tris(2-pyridyl)-1,3,5-triazine [Fe(III)-TPTZ] in the blue colored ferrous form, which absorbs light at λ = 593 nm. The Fe(III)-TPTZ reagent was prepared as a mixture of acetate buffer (pH 3.6), 10 mM TPTZ in 40 mM HCl, and 20 mM FeCl3 in the ratio of 10:1:1 (v/v/v). The FRAP reagent was freshly prepared before each experiment. The samples (0.1 mL) were mixed in polystyrene cuvettes with 3 mL of ferric complex and 0.9 mL of distilled water. The absorbance was measured after 10 min at λ = 593 nm.
smiles,measurement,value
"O=c1cc(-c2ccc(O)cc2)oc2c(O)c(O)cc(O)c12 [Compound 10, 8-hydroxyapigenin]",TEAC FRAP,7.824 ± 0.657 µmol trolox per µmol of tested
